From patent EP4559908A1, “HETEROARYL DERIVATIVE COMPOUND AND USE THEREOF” (S2CBio Inc., priority 2022, dated 2024)

Molecular target: T1, human ANO6 (variant 5) (Homo sapiens, UniProt Q4KMQ2)
T1 construct: expressed in transfected cells; host or cells: Fischer rat thyroid (FRT) cells
T1 sequence (Q4KMQ2 1-931 isoform Q4KMQ2-2): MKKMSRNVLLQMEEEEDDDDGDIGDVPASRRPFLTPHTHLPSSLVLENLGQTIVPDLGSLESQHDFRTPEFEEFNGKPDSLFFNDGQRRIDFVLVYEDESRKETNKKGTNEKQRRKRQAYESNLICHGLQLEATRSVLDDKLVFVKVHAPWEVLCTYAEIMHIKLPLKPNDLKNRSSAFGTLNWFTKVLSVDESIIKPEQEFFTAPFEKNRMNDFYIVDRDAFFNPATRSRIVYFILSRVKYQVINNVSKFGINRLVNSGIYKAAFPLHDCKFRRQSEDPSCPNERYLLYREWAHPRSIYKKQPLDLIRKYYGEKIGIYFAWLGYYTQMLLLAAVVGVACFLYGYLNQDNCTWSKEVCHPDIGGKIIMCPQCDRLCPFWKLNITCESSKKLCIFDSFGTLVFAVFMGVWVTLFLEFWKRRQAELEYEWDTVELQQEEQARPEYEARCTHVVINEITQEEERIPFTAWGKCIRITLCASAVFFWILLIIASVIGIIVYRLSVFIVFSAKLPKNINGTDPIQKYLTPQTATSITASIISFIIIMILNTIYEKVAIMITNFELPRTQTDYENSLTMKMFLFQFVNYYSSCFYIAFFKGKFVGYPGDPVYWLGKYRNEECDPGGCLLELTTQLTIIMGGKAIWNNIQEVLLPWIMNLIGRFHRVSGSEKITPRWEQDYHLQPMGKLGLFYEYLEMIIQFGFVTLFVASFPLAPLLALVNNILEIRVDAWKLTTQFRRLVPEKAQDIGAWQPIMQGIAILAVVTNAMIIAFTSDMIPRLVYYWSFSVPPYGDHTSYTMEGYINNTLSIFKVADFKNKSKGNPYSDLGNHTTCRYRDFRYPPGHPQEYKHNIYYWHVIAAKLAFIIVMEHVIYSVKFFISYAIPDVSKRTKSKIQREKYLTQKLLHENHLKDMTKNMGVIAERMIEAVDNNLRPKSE
Experiment: Lact C2 assay (measuring phosphatidylserine externalization scramblase function)
Type: cell-based
Conditions: FRT, FRT cells expressing human ANO6 (variant 5), ionomycin 10 µM, Lact-C2-GFP fluorescence, average of three tests; for inhibition at 0.05 µM: compound 50 nM, read-out: % Inhibition 50 nM; for inhibition at 1 µM: compound 1 µM, read-out: % Inhibition 1 µM; for inhibition at 0.1 µM: compound 100 nM
Procedure: Ionomycin (Alomonelab, cat. # I-700), DAPI (Sigma- Aldrich, cat. # D8417), paraformaldehyde (Biosesang, cat. #P2031), Lionheart FX automated fluorescence microscope (BioTek), Gen5™ software program (BioTek), and Image J analysis software program.
After the incubation, the cells were treated with compounds dissolved in DMSO to 1% v/v in each well at each concentration (50 nM, 100 nM, and 1 µM) and reacted for 10 minutes. Thereafter, each well was treated with ionomycin to a final concentration of 10 µM, allowed to react for 10 minutes, and then washed with 200 µL PBS. After washing, each well was treated with 50 µL of Lactadherin-C2 (Lact-C2)-GFP mixed in DMEM medium to a final concentration of 500 nM to stain phosphatidylserine, and cultured at 37°C for 10 minutes. After completion of the reaction, the cells were washed with 200 µL PBS, and fixed with 4% paraformaldehyde for 5 minutes at room temperature. For morphological analysis, DAPI solution was added, and the cells were incubated for 15 minutes, followed by washing with PBS. The fluorescence intensity of Lact-C2-GFP bound to phosphatidylserine on the cell surface was measured using an automated fluorescence microscope. For quantitative analysis of the fluorescence intensity of Lact-C2-GFP, BioTek Gen5™ software and Image J analysis software programs were used.
Phosphatidylserine externalization inhibitory activity (%) by the compound was calculated through the following analysis method. Specifically, the background fluorescence value was subtracted from the measured Lact-C2-GFP fluorescence value, and the fluorescence value of the ionomycin non-treatment group and the ionomycin-treatment group in the same row where each test group was located in a 96-well microplate were calculated. In order to calculate the inhibitory activity (%) by the compound, the relative inhibitory activity was calculated by setting the compound and ionomycin non-treatment group to 100% inhibitory activity and the ionomycin alone treatment group to 0% inhibitory activity.

SMILES | inhibition at 0.05 µM [%] | inhibition at 1 µM [%] | inhibition at 0.1 µM [%]
Clc1cc2[nH]c(-c3cccc(Nc4ccc(-c5ccccn5)cn4)c3)nc2cn1 [Example 282, N-(3-(6-chloro-1H-imidazo[4,5-c]pyridin-2-yl)phenyl)-[2,3'-bipyridin]-6'-amine] | 30 to 60 | > 60 | –
Fc1ccc(-c2ccc(Nc3cccc(-c4nc5ccc(C(F)(F)F)cc5[nH]4)c3)cc2)nc1 [Example 253, N-(4-(5-fluoropyridin-2-yl)phenyl)-3-(6-(trifluoromethyl)-1H-benzo[d]imidazol-2-yl)aniline] | > 60 | > 60 | –
Cc1noc(-c2ccc3nc(-c4cccc(Nc5ccc(-c6cccnn6)cc5)c4)[nH]c3c2)n1 [Example 93, 3-(6-(3-methyl-1,2,4-oxadiazol-5-yl)-1H-benzo[d]imidazol-2-yl)-N-(4-(pyridazin-3-yl)phenyl)aniline] | 30 to 60 | > 60 | –
FC(F)(F)c1ccc2nc(-c3cncc(Nc4ccc(-c5cccnn5)cc4)c3)[nH]c2c1 [Example 262, N-(4-(pyridazin-3-yl)phenyl)-5-(6-(trifluoromethyl)-1H-benzo[d]imidazol-2-yl)pyridin-3-amine] | > 60 | – | –
COc1cc(-c2cccnn2)ccc1Nc1cccc(-c2nc3ccccc3[nH]2)c1 [Example 210, N-(3-(1H-benzo[d]imidazol-2-yl)phenyl)-2-methoxy-4-(pyridazin-3-yl)aniline] | – | 30 to 60 | –
FC(F)(F)c1ccc2nc(-c3cccc(Nc4ccc(-c5ncccn5)cn4)c3)[nH]c2c1 [Example 100, 5-pyrimidin-2-yl-N-[3-[6-(trifluoromethyl)-1H-benzo[d]imidazol-2-yl]phenyl]pyridin-2-amine] | > 60 | > 60 | –
COc1ccc2nc(-c3cccc(Nc4ccc(-c5cccnn5)cc4)c3)[nH]c2c1 [Example 223, 3-(6-methoxy-1H-benzo[d]imidazol-2-yl)-N-(4-(pyridazin-3-yl)phenyl)aniline] | > 60 | > 60 | –
c1cncc(-c2ccc(Nc3cccc(-c4nc5ccccc5[nH]4)c3)cc2)c1 [Example 31, N-[3-(1H-benzo[d]imidazol-2-yl)phenyl]-4-(pyridin-3-yl)aniline] | 30 to 60 | – | > 60
c1ccc(-c2cnc(Nc3cccc(-c4nc5ccccc5[nH]4)c3)cn2)nc1 [Example 276, N-(3-(1H-benzo[d]imidazol-2-yl)phenyl)-5-(pyridin-2-yl)pyrazin-2-amine] | > 60 | – | –
FC(F)(F)c1ccc2nc(-c3cccc(Nc4ncc(-c5cscn5)cn4)c3)[nH]c2c1 [Example 304, 5-(thiazol-4-yl)-N-(3-(6-(trifluoromethyl)-1H-benzo[d]imidazol-2-yl)phenyl)pyrimidin-2-amine] | 30 to 60 | > 60 | –
c1cc(Nc2ccc(-c3ncco3)cc2)cc(-c2nc3ccccc3[nH]2)c1 [Example 165, 3-(1H-benzo[d]imidazol-2-yl)-N-(4-oxazol-2-ylphenyl)aniline] | 30 to 60 | > 60 | –
Clc1cccc2nc(-c3cccc(Nc4ccc(-c5cccnn5)cc4)c3)[nH]c12 [Example 115, 3-(7-chloro-1H-benzo[d]imidazol-2-yl)-N-(4-pyridazin-3-ylphenyl)aniline] | – | > 60 | –
c1cc(Nc2ccc(C3CCCCC3)cc2)cc(-c2nc3ccccc3[nH]2)c1 [Example 97, 3-(1H-benzo[d]imidazol-2-yl)-N-(4-cyclohexylphenyl)aniline] | – | > 60 | –
Cc1cc(Nc2cccc(-c3nc4ccccc4[nH]3)c2)ccc1-c1cccnn1 [Example 204, N-(3-(1H-benzo[d]imidazol-2-yl)phenyl)-3-methyl-4-(pyridazin-3-yl)aniline] | – | > 60 | –
FC(F)(F)c1ccc2nc(-c3cccc(Nc4ccc(-c5ccncn5)cc4)c3)[nH]c2c1 [Example 24, N-(4-(pyrimidin-4-yl)phenyl)-3-(6-(trifluoromethyl)-1H-benzo[d]imidazol-2-yl)aniline] | > 60 | > 60 | > 60

The next lines start with the values.

inhibition at 0.05 µM [%] | inhibition at 1 µM [%] | inhibition at 0.1 µM [%] | SMILES
– | > 60 | – | FC(F)(F)c1ccc2nc(-c3cccc(Nc4ccc(-c5ccccn5)nn4)c3)[nH]c2c1 [Example 256, 6-(pyridin-2-yl)-N-(3-(6-(trifluoromethyl)-1H-benzo[d]imidazol-2-yl)phenyl)pyridazin-3-amine]
30 to 60 | > 60 | – | c1cc(Nc2ncc(-c3ccsc3)cn2)cc(-c2nc3ccccc3[nH]2)c1 [Example 164, N-[3-(1H-benzo[d]imidazol-2-yl)phenyl]-5-(3-thienyl)pyrimidin-2-amine]
> 60 | > 60 | > 60 | Clc1cc2nc(-c3cccc(Nc4ccc(-c5ccccc5)nn4)c3)[nH]c2cc1Cl [Example 7, N-(3-(5,6-dichloro-1H-benzo[d]imidazol-2-yl)phenyl)-6-phenylpyridazin-3-amine]
> 60 | > 60 | – | FC(F)(F)c1cc2[nH]c(-c3cccc(Nc4ccc(-c5cccnn5)cn4)c3)nc2cn1 [Example 254, 5-(pyridazin-3-yl)-N-(3-(6-(trifluoromethyl)-1H-imidazo[4,5-c]pyridin-2-yl)phenyl)pyridin-2-amine]
30 to 60 | > 60 | – | Fc1cc2nc(-c3cccc(Nc4ncc(-c5cccnn5)cn4)c3)[nH]c2cc1F [Example 99, N-[3-(5,6-difluoro-1H-benzo[d]imidazol-2-yl)phenyl]-5-pyridazin-3-yl-pyrimidin-2-amine]
> 60 | – | > 60 | FC(F)(F)c1ccc2nc(-c3cccc(Nc4ncc(-c5cccnn5)cn4)c3)[nH]c2c1 [Example 52, 5-(pyridazin-3-yl)-N-(3-(6-(trifluoromethyl)-1H-benzo[d]imidazol-2-yl)phenyl)pyrimidin-2-amine]
30 to 60 | > 60 | – | FC(F)(F)c1cnc2nc(-c3cccc(Nc4ncc(-c5ccccn5)cn4)c3)[nH]c2c1 [Example 243, 5-(pyridin-2-yl)-N-(3-(6-(trifluoromethyl)-1H-imidazo[4,5-b]pyridin-2-yl)phenyl)pyrimidin-2-amine]
30 to 60 | > 60 | – | Clc1cc2[nH]c(-c3cccc(Nc4ccc(-c5ccccn5)cc4)c3)nc2cn1 [Example 119, 3-(6-chloro-1H-imidazo[4,5-c]pyridin-2-yl)-N-[4-(2-pyridyl)phenyl]aniline]
> 60 | – | – | FC(F)(F)c1cc2[nH]c(-c3cccc(Nc4ccc(-c5cccnn5)cc4)c3)nc2cn1 [Example 79, N-(4-(pyridazin-3-yl)phenyl)-3-(6-(trifluoromethyl)-1H-imidazolo[4,5-c]pyridin-2-yl)aniline]
> 60 | – | – | c1cc(Nc2cnc(-c3ccncn3)cn2)cc(-c2nc3ccccc3[nH]2)c1 [Example 277, N-(3-(1H-benzo[d]imidazol-2-yl)phenyl)-5-(pyrimidin-4-yl)pyrazin-2-amine]
– | > 60 | – | FC(F)(F)c1ccccc1-c1ccc(Nc2cccc(-c3nc4ccccc4[nH]3)c2)cc1 [Example 272, N-(3-(1H-benzo[d]imidazol-2-yl)phenyl)-2'-(trifluoromethyl)-[1,1'-biphenyl]-4-amine]
